This note sets out measurements from publication PMC12016938, “A small molecule PKCε inhibitor reduces hyperalgesia induced by paclitaxel or opioid withdrawal” (JCI Insight, 2025).

Usually half-life stands for the time in which the quantity being followed falls by half. Usually IC50 stands for the concentration that gives 50% inhibition.

One data set concerns the target T1, PKCβII (Homo sapiens, UniProt P05771).
T1 construct: purchased SignalChem Biotech
Put plainly: Lance-FRET kinase assay, PKCβII. Type of data set: biochemical. The conditions noted are these: Figure 1B. As to the method:
(§1) Kinase assays. CP612 was assayed against His-AVI–tagged human PKCε (1 nM) produced in Sf9 cells, and ROCK1 (Carna Biosciences; 5 nM) using the Lance-FRET kinase assay system (PerkinElmer Revvity). Other human recombinant PKCs (SignalChem Biotech) were assayed in triplicate at the following concentrations: PKCβII 1.6 nM, PKCγ 500 pM, PKCδ 5 nM, PKCθ 500 pM, and PKCζ 500 pM. PKCs were incubated in a 15 μL reaction volume with kinase buffer (20 mM Tris-HCL [pH 7.4], 10 mM MgCl2, 0.25 mM EGTA, 0.1 mg/mL BSA, and 0.15% Triton X-100), 50 nM ULight-labeled CREBtide […] (PerkinElmer, TRF0107, Revvity), and test compound. […] After incubation at 27°C for another 60 minutes, phosphorylation was detected using a FlexStation 3 Microplate Reader (Molecular Devices) in LANCE TR-FRET mode (excitation = 340 nm, emission = 665 nm) and expressed as relative fluorescence units (RFU). The percentage of inhibition was calculated as: (signal without test compound − signal with test compound)/(signal without test compound − signal without ATP) × 100. […]
(§2) Kinase assays used 11-point concentration-response curves and results were analyzed by nonlinear regression using Prism 9 (GraphPad Software) to determine IC50 values. […] Scores for pain threshold, conditioned place preference, and self-administration were analyzed by ANOVA using the following factors. […]

A further data set is described as follows: in vitro. The conditions noted are these: human, microsomes; for half-life at 8.5 μM: both. The procedure:
Microsomal clearance. To determine if CP612 was a likely substrate for first-pass hepatic metabolism, we measured the stability of CP612 in the presence of human liver microsomes (BioIVT) pooled from over 100 male and female individuals. […] Test compounds were diluted to 10 μM in 0.1M PBS, and then 51 μL were dispensed in quadruplicate into wells of a 96-well plate, which was shaken at 600 rpm at 37°C. Reactions were initiated by adding 1.5 μL of microsomes (20 mg/mL) to the wells and 3 minutes later adding 7.5 μL of 8 mM NADPH (1 mM final concentration). Samples incubated without NADPH were used as negative controls.

The target in data set [1] is T2, ROCK1 (Homo sapiens, UniProt Q13464). Put plainly: Lance-FRET kinase assay, ROCK1. Type of data set: biochemical. The conditions noted are these: mean of all runs (count 42 CP612; 38 CIDD-0072424); 2.5 μM ATP; read-out: IC50 (nM) [Enzyme: ROCK1], mean. Details: purchased Carna Biosciences. The procedure:
as §1, §2
Target sequence in this assay (Q13464 1-477 limits assumed): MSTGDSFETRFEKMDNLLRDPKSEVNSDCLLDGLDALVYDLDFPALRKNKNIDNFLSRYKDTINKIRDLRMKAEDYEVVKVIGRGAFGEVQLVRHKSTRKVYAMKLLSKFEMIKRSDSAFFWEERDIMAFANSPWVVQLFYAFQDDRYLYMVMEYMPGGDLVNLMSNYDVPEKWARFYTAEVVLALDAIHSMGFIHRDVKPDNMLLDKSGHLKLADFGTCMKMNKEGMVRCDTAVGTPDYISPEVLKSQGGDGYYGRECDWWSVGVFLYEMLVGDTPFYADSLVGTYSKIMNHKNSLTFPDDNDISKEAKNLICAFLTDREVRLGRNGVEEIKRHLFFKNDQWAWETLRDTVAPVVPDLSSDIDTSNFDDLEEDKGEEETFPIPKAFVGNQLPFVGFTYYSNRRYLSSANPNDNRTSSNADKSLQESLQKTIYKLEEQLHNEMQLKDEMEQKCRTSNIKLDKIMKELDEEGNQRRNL

Data set [2] addresses T2, ROCK1. Description: scanMax kinome panel, ROCK1. Type of data set: binding. Further details: purchased Eurofins-DiscoverX. Conditions: 200 nM CP612. The procedure: CP612 was screened for kinome specificity at 200 nM against 468 kinases using the scanMax assay panel from Eurofins-DiscoverX. CP612 inhibited 10 other WT kinases besides PKCε, all to < 10% of control: CLK1 (CDC Like Kinase 1), CLK4, PKN1 (Protein kinase N1), PKN2, PKCδ, PKCη, PKCθ, PRKG2 (Protein Kinase CGMP-Dependent 2), ROCK1, and ROCK2.
Target sequence in this assay (Q13464 whole entry): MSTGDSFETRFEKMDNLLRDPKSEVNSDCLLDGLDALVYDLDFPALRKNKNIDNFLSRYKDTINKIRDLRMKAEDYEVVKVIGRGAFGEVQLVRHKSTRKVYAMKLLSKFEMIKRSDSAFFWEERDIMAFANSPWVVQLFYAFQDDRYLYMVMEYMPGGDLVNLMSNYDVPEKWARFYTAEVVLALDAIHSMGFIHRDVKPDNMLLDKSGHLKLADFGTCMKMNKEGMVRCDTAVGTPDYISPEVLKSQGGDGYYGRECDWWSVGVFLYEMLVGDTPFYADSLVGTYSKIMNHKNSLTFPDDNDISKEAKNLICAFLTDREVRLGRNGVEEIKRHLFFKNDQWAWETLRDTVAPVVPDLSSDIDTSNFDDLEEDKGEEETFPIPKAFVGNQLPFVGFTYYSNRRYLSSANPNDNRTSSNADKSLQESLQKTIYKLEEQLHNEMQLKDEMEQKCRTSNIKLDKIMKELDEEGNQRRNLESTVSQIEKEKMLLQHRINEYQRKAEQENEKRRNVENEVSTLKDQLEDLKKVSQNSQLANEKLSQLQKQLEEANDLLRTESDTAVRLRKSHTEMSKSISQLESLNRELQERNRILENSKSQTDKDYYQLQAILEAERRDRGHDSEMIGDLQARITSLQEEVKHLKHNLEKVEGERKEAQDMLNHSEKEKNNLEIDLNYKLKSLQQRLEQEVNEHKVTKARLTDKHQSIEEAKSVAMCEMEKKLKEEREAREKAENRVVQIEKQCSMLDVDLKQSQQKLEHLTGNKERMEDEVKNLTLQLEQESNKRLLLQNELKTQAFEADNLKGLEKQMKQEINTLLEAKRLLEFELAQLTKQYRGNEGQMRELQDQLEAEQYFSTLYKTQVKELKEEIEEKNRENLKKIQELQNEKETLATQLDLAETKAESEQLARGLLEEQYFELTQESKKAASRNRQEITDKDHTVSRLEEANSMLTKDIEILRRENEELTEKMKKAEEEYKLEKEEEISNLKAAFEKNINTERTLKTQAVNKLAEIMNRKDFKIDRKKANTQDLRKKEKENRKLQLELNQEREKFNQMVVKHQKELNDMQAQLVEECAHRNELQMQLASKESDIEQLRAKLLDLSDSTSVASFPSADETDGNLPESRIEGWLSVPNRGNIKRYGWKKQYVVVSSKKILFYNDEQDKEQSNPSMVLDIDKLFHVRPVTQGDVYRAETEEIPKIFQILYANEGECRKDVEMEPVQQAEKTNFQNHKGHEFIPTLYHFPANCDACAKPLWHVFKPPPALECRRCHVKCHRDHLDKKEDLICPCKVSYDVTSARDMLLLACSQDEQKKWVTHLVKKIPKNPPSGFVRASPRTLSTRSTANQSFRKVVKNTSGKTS

SMILES strings stand for the structures.

T1 sequence (P05771 1-673 isoform P05771-2): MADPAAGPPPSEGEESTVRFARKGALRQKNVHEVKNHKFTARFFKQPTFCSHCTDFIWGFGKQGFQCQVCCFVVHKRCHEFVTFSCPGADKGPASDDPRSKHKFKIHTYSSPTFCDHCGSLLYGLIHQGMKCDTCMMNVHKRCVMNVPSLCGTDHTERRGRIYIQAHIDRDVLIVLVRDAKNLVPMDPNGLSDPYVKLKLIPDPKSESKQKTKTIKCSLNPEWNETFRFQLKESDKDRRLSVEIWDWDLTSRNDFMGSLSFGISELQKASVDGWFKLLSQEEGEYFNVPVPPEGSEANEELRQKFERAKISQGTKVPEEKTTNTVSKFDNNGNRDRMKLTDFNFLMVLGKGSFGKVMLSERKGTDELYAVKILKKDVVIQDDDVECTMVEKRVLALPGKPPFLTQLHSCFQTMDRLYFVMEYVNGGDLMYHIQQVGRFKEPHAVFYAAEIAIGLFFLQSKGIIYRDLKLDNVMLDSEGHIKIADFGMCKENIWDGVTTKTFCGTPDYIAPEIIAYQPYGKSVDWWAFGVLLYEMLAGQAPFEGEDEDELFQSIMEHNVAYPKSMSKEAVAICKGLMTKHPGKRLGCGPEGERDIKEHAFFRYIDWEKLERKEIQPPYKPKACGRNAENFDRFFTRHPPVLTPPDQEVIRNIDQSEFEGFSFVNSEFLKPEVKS

In the case of `N[C@H](CNC(=O)C1(c2ccc(Cl)cc2)CCCC1)c1ccc(C(=O)Nc2ccncc2)cc1` [CP612], the “Inhibition of conventional PKCβII” value at PKCβII is recorded as “weakly inhibited”. The half-life at 8.5 μM turned out to be 10.5 ± 1.31 h in “in vitro” (Microsomal clearance t½ (min)); 10.8 h in the data set “in vitro” (t1/2 (half life)); 10.5 h in the data set “in vitro” (t1/2 (half life), Mean). The “CLint (clearance), Mean” value in the data set “in vitro” came out at 2.23. For the same molecule, in “in vitro”, the “Microsomal clearance (in words)” value is recorded as “low”. Moreover, the “Microsomal clearance Cl” value in “in vitro” is 2.23 ± 0.29 µL/min. The IC50 at ROCK1 [1] was determined as 65.9 ± 10.8 nM. The “scanMax % of control, ROCK1” value on ROCK1 [2] is on record as < 10 % of control.
